{"source": "ChEMBL document CHEMBL1158692", "about": "“Lajollamycin, a nitro-tetraene spiro-beta-lactone-gamma-lactam antibiotic from the marine actinomycete Streptomyces nodosus” (J Nat Prod, 2005)", "key": {"Streptococcus pneumoniae [1]": {"test_system": "Streptococcus pneumoniae", "experiment": "Antimicrobial activity against penicillin-resistant Streptococcus pneumoniae after 14 to 16 hrs", "assay_type": "functional"}, "Enterococcus faecalis": {"test_system": "Enterococcus faecalis", "experiment": "Antimicrobial activity against vancomycin-sensitive Enterococcus faecalis after 14 to 16 hrs", "assay_type": "functional"}, "Enterococcus faecium": {"test_system": "Enterococcus faecium", "experiment": "Antimicrobial activity against vancomycin-resistant Enterococcus faecium after 14 to 16 hrs", "assay_type": "functional"}, "Staphylococcus aureus [2]": {"test_system": "Staphylococcus aureus", "experiment": "Antimicrobial activity against methicillin-resistant Staphylococcus aureus after 14 to 16 hrs", "assay_type": "functional"}, "B16-F10": {"test_system": "B16-F10", "experiment": "Cytotoxicity against mouse B16F10 cells after 3 to 6 hrs", "assay_type": "functional, cell-based"}, "Escherichia coli": {"test_system": "Escherichia coli", "experiment": "Antimicrobial activity against Escherichia coli after 14 to 16 hrs", "assay_type": "functional"}, "Streptococcus pneumoniae [3]": {"test_system": "Streptococcus pneumoniae", "experiment": "Antimicrobial activity against penicillin-sensitive Streptococcus pneumoniae after 14 to 16 hrs", "assay_type": "functional"}, "Staphylococcus aureus [4]": {"test_system": "Staphylococcus aureus", "experiment": "Antimicrobial activity against methicillin-sensitive Staphylococcus aureus after 14 to 16 hrs", "assay_type": "functional"}}}
{"smiles": "COC(CC(C)C(O)/C=C/C=C/CNC(=O)C(C)(C)C(O)\\C(C)=C/C=C\\C=C\\C(C)=C(/C)[N+](=O)[O-])C1(O)C(C)C(=O)N(C)C12C(=O)OC2C", "note": "(stereo not drawn) [LAJOLLAMYCIN]", "values": [{"measurement": "MIC", "setting": "Streptococcus pneumoniae [1]", "result": 1.5, "unit": "µg/mL"}, {"measurement": "MIC", "setting": "Enterococcus faecalis", "result": 14, "unit": "µg/mL"}, {"measurement": "MIC", "setting": "Enterococcus faecium", "result": 20, "unit": "µg/mL"}, {"measurement": "MIC", "setting": "Staphylococcus aureus [2]", "result": 5, "unit": "µg/mL"}, {"measurement": "EC50", "setting": "B16-F10", "result": 9.6, "unit": "µM"}, {"measurement": "MIC", "setting": "Escherichia coli", "result": 12, "unit": "µg/mL"}, {"measurement": "MIC", "setting": "Streptococcus pneumoniae [3]", "result": 2, "unit": "µg/mL"}, {"measurement": "MIC", "setting": "Staphylococcus aureus [4]", "result": 4, "unit": "µg/mL"}]}
